What was measured:
Test in all cases: relative viability (nuclei count vs DMSO), 5 days (fraction); higher = more cells survive
NCI-H460 = test system: NCI-H460
Outline: (§1)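 Relative viability is defined as nuclei in treated wells over nuclei in vehicle wells. Duplicate plates were run and medians reported. Lung cancer cell lines in 1536-well plates were dosed by pin tool one day after seeding, with one drug or with a fixed anchor-drug dose plus five library-drug doses (not always all listed) in √10 steps, and nuclei were counted after 5 days.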

NCI-H727 = test system: NCI-H727
Outline: as §1

LCLC-97TM1 = test system: LCLC-97TM1
Outline: as §1

NCI-H2347 = test system: NCI-H2347
Outline: as §1

H3255 = test system: H3255
Outline: as §1

NCI-H650 = test system: NCI-H650
Outline: as §1

LK-2 = test system: LK-2
Outline: as §1

NCI-H1563 = test system: NCI-H1563
Outline: as §1

COR-L23 = test system: COR-L23
Outline: as §1

201T = test system: 201T
Outline: as §1

PC-3 [JPC-3] = test system: PC-3 [JPC-3]
Outline: as §1

LCLC-103H = test system: LCLC-103H
Outline: as §1

A-427 = test system: A-427
Outline: as §1

NCI-H23 = test system: NCI-H23
Outline: as §1

NCI-H1944 = test system: NCI-H1944
Outline: as §1

NCI-H1650 = test system: NCI-H1650
Outline: as §1

NCI-H838 = test system: NCI-H838
Outline: as §1

PC-14 = test system: PC-14
Outline: as §1

NCI-H1793 = test system: NCI-H1793
Outline: as §1

LU99A = test system: LU99A
Outline: as §1

SW 1573 = test system: SW 1573
Outline: as §1

HCC-44 = test system: HCC-44
Outline: as §1

With `O=C(O)c1ccc(-c2c[nH]c3ncc(-c4ccccc4)cc23)cc1C1CCCC1` + CS(=O)(=O)N1CCN(Cc2cc3nc(-c4cccc5[nH]ncc45)nc(N4CCOCC4)c3s2)CC1 [Pictilisib] (partner 1 µM) as the compound, how does the relative viability (NCI-H460; first compound 0.04 µM) read?
The relative viability was 0.409.

What about the relative viability (NCI-H460; first compound 0.1265 µM) of the same compound?
Its relative viability is 0.574.

And the relative viability (NCI-H460; first compound 0.4 µM)?
The relative viability was 0.38.

What about the relative viability (NCI-H460; first compound 1.265 µM) of the same compound?
Its relative viability is 0.365.

And the relative viability (NCI-H727; first compound 0.04 µM)?
The relative viability was 0.363.

And the relative viability (NCI-H727; first compound 0.1265 µM)?
Its relative viability is 0.403.

And the relative viability (NCI-H727; first compound 0.4 µM)?
Its relative viability is 0.654.

And the relative viability (NCI-H727; first compound 1.265 µM)?
The relative viability was 0.354.

And the relative viability (LCLC-97TM1; first compound 0.04 µM)?
Its relative viability is 0.228.

And the relative viability (LCLC-97TM1; first compound 0.1265 µM)?
The relative viability was 0.183.

And the relative viability (LCLC-97TM1; first compound 0.4 µM)?
The relative viability was 0.192.

And the relative viability (LCLC-97TM1; first compound 1.265 µM)?
Its relative viability is 0.17.

What about the relative viability (NCI-H2347; first compound 0.04 µM) of the same compound?
Its relative viability is 0.622.

What about the relative viability (NCI-H2347; first compound 0.1265 µM) of the same compound?
Its relative viability is 0.789.

And the relative viability (NCI-H2347; first compound 0.4 µM)?
The relative viability was 0.621.

What about the relative viability (NCI-H2347; first compound 1.265 µM) of the same compound?
Its relative viability is 0.75.

What about the relative viability (H3255; first compound 0.04 µM) of the same compound?
Its relative viability is 0.502.

What about the relative viability (H3255; first compound 0.1265 µM) of the same compound?
Its relative viability is 0.529.

What about the relative viability (H3255; first compound 0.4 µM) of the same compound?
Its relative viability is 0.441.

And the relative viability (H3255; first compound 1.265 µM)?
Its relative viability is 0.462.

What about the relative viability (NCI-H650; first compound 0.04 µM) of the same compound?
The relative viability was 0.993.

What about the relative viability (NCI-H650; first compound 0.1265 µM) of the same compound?
Its relative viability is 0.889.

And the relative viability (NCI-H650; first compound 0.4 µM)?
The relative viability was 0.701.

What about the relative viability (NCI-H650; first compound 1.265 µM) of the same compound?
Its relative viability is 0.681.

What about the relative viability (LK-2; first compound 0.04 µM) of the same compound?
Its relative viability is 0.754.

And the relative viability (LK-2; first compound 0.1265 µM)?
Its relative viability is 0.507.

And the relative viability (LK-2; first compound 0.4 µM)?
Its relative viability is 0.611.

What about the relative viability (LK-2; first compound 1.265 µM) of the same compound?
Its relative viability is 0.592.

What about the relative viability (NCI-H1563; first compound 0.04 µM) of the same compound?
Its relative viability is 0.604.

What about the relative viability (NCI-H1563; first compound 0.1265 µM) of the same compound?
The relative viability was 0.658.

What about the relative viability (NCI-H1563; first compound 0.4 µM) of the same compound?
The relative viability was 0.65.

And the relative viability (NCI-H1563; first compound 1.265 µM)?
Its relative viability is 0.742.

What about the relative viability (COR-L23; first compound 0.04 µM) of the same compound?
Its relative viability is 0.775.

What about the relative viability (COR-L23; first compound 0.1265 µM) of the same compound?
The relative viability was 0.9.

And the relative viability (COR-L23; first compound 0.4 µM)?
The relative viability was 0.798.

What about the relative viability (COR-L23; first compound 1.265 µM) of the same compound?
The relative viability was 0.425.

What about the relative viability (201T; first compound 0.04 µM) of the same compound?
The relative viability was 0.695.

What about the relative viability (201T; first compound 0.1265 µM) of the same compound?
Its relative viability is 0.619.

And the relative viability (201T; first compound 0.4 µM)?
Its relative viability is 0.608.

And the relative viability (201T; first compound 1.265 µM)?
Its relative viability is 0.656.

And the relative viability (PC-3 [JPC-3]; first compound 0.04 µM)?
The relative viability was 0.784.

What about the relative viability (PC-3 [JPC-3]; first compound 0.1265 µM) of the same compound?
The relative viability was 0.799.

What about the relative viability (PC-3 [JPC-3]; first compound 0.4 µM) of the same compound?
The relative viability was 0.757.

And the relative viability (PC-3 [JPC-3]; first compound 1.265 µM)?
The relative viability was 0.768.

What about the relative viability (LCLC-103H; first compound 0.04 µM) of the same compound?
Its relative viability is 0.631.

What about the relative viability (LCLC-103H; first compound 0.1265 µM) of the same compound?
The relative viability was 0.693.

What about the relative viability (LCLC-103H; first compound 0.4 µM) of the same compound?
The relative viability was 0.57.

What about the relative viability (LCLC-103H; first compound 1.265 µM) of the same compound?
Its relative viability is 0.632.

What about the relative viability (A-427; first compound 0.04 µM) of the same compound?
Its relative viability is 0.836.

And the relative viability (A-427; first compound 0.1265 µM)?
Its relative viability is 0.738.

What about the relative viability (A-427; first compound 0.4 µM) of the same compound?
The relative viability was 0.723.

What about the relative viability (A-427; first compound 1.265 µM) of the same compound?
The relative viability was 0.738.

What about the relative viability (NCI-H23; first compound 0.04 µM) of the same compound?
Its relative viability is 0.532.

And the relative viability (NCI-H23; first compound 0.1265 µM)?
The relative viability was 0.519.

What about the relative viability (NCI-H23; first compound 0.4 µM) of the same compound?
Its relative viability is 0.43.

And the relative viability (NCI-H23; first compound 1.265 µM)?
Its relative viability is 0.428.

And the relative viability (NCI-H1944; first compound 0.04 µM)?
Its relative viability is 0.359.

What about the relative viability (NCI-H1944; first compound 0.1265 µM) of the same compound?
The relative viability was 0.338.

What about the relative viability (NCI-H1944; first compound 0.4 µM) of the same compound?
Its relative viability is 0.309.

And the relative viability (NCI-H1944; first compound 1.265 µM)?
Its relative viability is 0.35.

And the relative viability (NCI-H1650; first compound 0.04 µM)?
The relative viability was 0.585.

And the relative viability (NCI-H1650; first compound 0.1265 µM)?
The relative viability was 0.585.

What about the relative viability (NCI-H1650; first compound 0.4 µM) of the same compound?
The relative viability was 0.556.

And the relative viability (NCI-H1650; first compound 1.265 µM)?
Its relative viability is 0.381.

And the relative viability (NCI-H838; first compound 0.04 µM)?
Its relative viability is 0.423.

What about the relative viability (NCI-H838; first compound 0.1265 µM) of the same compound?
Its relative viability is 0.57.

And the relative viability (NCI-H838; first compound 0.4 µM)?
The relative viability was 0.506.

What about the relative viability (NCI-H838; first compound 1.265 µM) of the same compound?
The relative viability was 0.447.

And the relative viability (PC-14; first compound 0.04 µM)?
The relative viability was 0.765.

And the relative viability (PC-14; first compound 0.1265 µM)?
The relative viability was 0.947.

What about the relative viability (PC-14; first compound 0.4 µM) of the same compound?
Its relative viability is 0.713.

And the relative viability (PC-14; first compound 1.265 µM)?
Its relative viability is 0.801.

And the relative viability (NCI-H1793; first compound 0.04 µM)?
Its relative viability is 0.387.

And the relative viability (NCI-H1793; first compound 0.1265 µM)?
Its relative viability is 0.43.

And the relative viability (NCI-H1793; first compound 0.4 µM)?
The relative viability was 0.308.

And the relative viability (NCI-H1793; first compound 1.265 µM)?
Its relative viability is 0.336.

What about the relative viability (LU99A; first compound 0.04 µM) of the same compound?
The relative viability was 0.321.

And the relative viability (LU99A; first compound 0.1265 µM)?
Its relative viability is 0.315.

And the relative viability (LU99A; first compound 0.4 µM)?
The relative viability was 0.308.

What about the relative viability (LU99A; first compound 1.265 µM) of the same compound?
Its relative viability is 0.278.

And the relative viability (SW 1573; first compound 0.04 µM)?
Its relative viability is 0.638.

What about the relative viability (SW 1573; first compound 0.1265 µM) of the same compound?
The relative viability was 0.621.

What about the relative viability (SW 1573; first compound 0.4 µM) of the same compound?
Its relative viability is 0.512.

What about the relative viability (SW 1573; first compound 1.265 µM) of the same compound?
The relative viability was 0.317.

What about the relative viability (HCC-44; first compound 0.04 µM) of the same compound?
Its relative viability is 0.697.

And the relative viability (HCC-44; first compound 0.1265 µM)?
Its relative viability is 0.676.

What about the relative viability (HCC-44; first compound 0.4 µM) of the same compound?
The relative viability was 0.668.

What about the relative viability (HCC-44; first compound 1.265 µM) of the same compound?
Its relative viability is 0.56.
